In ChEMBL document CHEMBL5154884, “Discovery of a Novel Src Homology-2 Domain Containing Protein Tyrosine Phosphatase-2 (SHP2) and Cyclin-Dependent Kinase 4 (CDK4) Dual Inhibitor for the Treatment of Triple-Negative Breast Cancer” (J Med Chem, 2022):
Active and inactive are the calls of the source. No cut-off for these calls is given here.

How the values were obtained:
[1] = molecular target: T1, Tyrosine-protein phosphatase non-receptor type 11 (Homo sapiens, UniProt Q06124); test: Inhibition of SHP2 (unknown origin) using DiFMUP as substrate incubated for 60 mins followed by substrate addition for 30 mins by microplate reader method
T1 sequence (Q06124 whole entry): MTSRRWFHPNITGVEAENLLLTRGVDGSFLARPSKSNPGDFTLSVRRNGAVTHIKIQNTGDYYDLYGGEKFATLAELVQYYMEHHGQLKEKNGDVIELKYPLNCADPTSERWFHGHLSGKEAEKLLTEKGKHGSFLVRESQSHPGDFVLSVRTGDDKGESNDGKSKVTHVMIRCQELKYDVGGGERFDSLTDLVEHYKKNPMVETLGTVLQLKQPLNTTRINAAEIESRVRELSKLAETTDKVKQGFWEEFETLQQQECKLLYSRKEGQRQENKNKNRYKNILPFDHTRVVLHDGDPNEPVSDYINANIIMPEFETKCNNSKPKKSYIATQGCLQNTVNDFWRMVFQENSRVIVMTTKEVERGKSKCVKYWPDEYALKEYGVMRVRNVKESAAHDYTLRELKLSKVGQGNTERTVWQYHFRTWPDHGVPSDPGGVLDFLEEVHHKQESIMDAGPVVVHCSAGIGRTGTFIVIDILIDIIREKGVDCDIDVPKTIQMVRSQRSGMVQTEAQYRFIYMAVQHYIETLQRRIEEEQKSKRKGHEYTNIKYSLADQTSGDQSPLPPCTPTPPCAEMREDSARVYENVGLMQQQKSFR

[2] = molecular target: T1, Tyrosine-protein phosphatase non-receptor type 11; test: Inhibition of SHP2 PTP domain (unknown origin) using DiFMUP as substrate preincubated for 20 mins followed by substrate addition and measured for 2 hrs by fluorescence based analysis
[3] = molecular target: Tyrosine-protein phosphatase non-receptor type 6 (Homo sapiens, UniProt P29350); test: Inhibition of SHP1 (unknown origin) using DiFMUP as substrate preincubated for 20 mins followed by substrate addition and measured for 2 hrs by fluorescence based analysis
[4] = Inhibition of recombinant N-terminal GST/His6-fusion tagged human CDK1/Cyclin B expressed in Sf9 insect cells incubated for 20 mins followed by [33P]gamma-ATP addition and measured after 2 hrs by radiometric HotSpot Kinase assay
CDK6/cyclin D3 = CDK6/cyclin D3 (Homo sapiens, UniProt Q00534); test: Inhibition of recombinant N-terminal GST/His6-fusion tagged human CDK6/Cyclin D3 expressed in Sf9 insect cells incubated for 20 mins followed by [33P]gamma-ATP addition and measured after 2 hrs by radiometric HotSpot Kinase assay
[5] = Inhibition of recombinant full length N-terminal GST/His6-fusion tagged human CDK9/Cyclin T1 expressed in Sf9 insect cells incubated for 20 mins followed by [33P]gamma-ATP addition and measured after 2 hrs by radiometric HotSpot Kinase assay
MDA-MB-231 [6] = test: Induction of apoptosis in human MDA-MB-231 cells assessed as late apoptotic cells at 3 uM measured after 48 hrs by Annexin V-FITC/PI staining based flow cytometric analysis (reference value: 1.06%); assay type: functional
MDA-MB-231 [7] = test: Induction of apoptosis in human MDA-MB-231 cells assessed as viable cells at 3 uM measured after 48 hrs by Annexin V-FITC/PI staining based flow cytometric analysis (reference value: 98.04%); assay type: functional; details: read-out: Activity
MDA-MB-231 [8] = test: Induction of apoptosis in human MDA-MB-231 cells assessed as necrotic cells at 1 uM measured after 48 hrs by Annexin V-FITC/PI staining based flow cytometric analysis (reference value: 0.58%); assay type: functional
MDA-MB-231 [9] = test: Induction of apoptosis in human MDA-MB-231 cells assessed as late apoptotic cells at 1 uM measured after 48 hrs by Annexin V-FITC/PI staining based flow cytometric analysis (reference value: 1.06%); assay type: functional
MDA-MB-231 [10] = test: Induction of apoptosis in human MDA-MB-231 cells assessed as early apoptotic cells at 1 uM measured after 48 hrs by Annexin V-FITC/PI staining based flow cytometric analysis (reference value: 0.32%); assay type: functional
[11] = molecular target: T2, Tyrosine-protein phosphatase non-receptor type 11 (Homo sapiens) (UniProt Q06124); test: Inhibition of SHP2 downstream signalling in human MDA-MB-231 cells assessed as decrease in pERK1/2 protein level measured after 72 hrs by Western blot analysis; assay type: cell-based; details: dose 1.25-20 µM, DDE = dose-dependent effect
T2 sequence (whole entry): T1 sequence (Q06124 whole entry)

[12] = AUC in ICR mouse at 1 mg/kg, iv measured upto 24 hrs by LC-MS/MS analysis; assay type: ADME, organism-based; parameters: time < 24 hrs, dose 1 mg/kg, route iv; details: in vivo
[13] = Terminal half life in ICR mouse at 1 mg/kg, iv measured upto 24 hrs by LC-MS/MS analysis; assay type: ADME, organism-based; details: in vivo, read-out: beta t1/2 (converted)
[14] = Terminal half life in ICR mouse at 10 mg/kg, po measured upto 24 hrs by LC-MS/MS analysis; assay type: ADME, organism-based; details: in vivo, read-out: beta t1/2 (converted)
[15] = Cmax in ICR mouse at 1 mg/kg, iv measured upto 24 hrs by LC-MS/MS analysis; assay type: ADME, organism-based; parameters: time < 24 hrs, dose 1 mg/kg, route iv; details: in vivo
[16] = Cmax in ICR mouse at 10 mg/kg, po measured upto 24 hrs by LC-MS/MS analysis; assay type: ADME, organism-based; parameters: time < 24 hrs, dose 10 mg/kg, route po; details: in vivo
[17] = Oral bioavailability in ICR mouse at 10 mg/kg measured upto 24 hrs by LC-MS/MS analysis; assay type: ADME, organism-based; details: in vivo
EMT6 [18] = test: Antitumor activity against mouse EMT6 cells implanted in BALB/c mouse syngenic model assessed as tumor growth inhibition at 20 mg/kg, po bid and measured after 18 days relative to control; assay type: functional; details: EMT6, 432 h, time 18 day, read-out: TGI
EMT6 [19] = test: Antitumor activity against mouse EMT6 cells implanted in BALB/c mouse syngenic model assessed as downregulation of Ki67 level in tumor at 20 to 40 mg/kg, po qd measured after 18 days by immunohistochemical analysis; assay type: functional, organism-based; details: dose 20-40 mg/kg, time 18.0 day
EMT6 [20] = test: Antitumor activity against mouse EMT6 cells implanted in BALB/c mouse syngenic model assessed as downregulation of pERK level in tumor at 20 to 40 mg/kg, po qd measured after 18 days by immunohistochemical analysis; assay type: functional, organism-based; details: dose 20-40 mg/kg, time 18.0 day
EMT6 [21] = test: Antitumor activity against mouse EMT6 cells implanted in BALB/c mouse syngenic model assessed as downregulation of pERK level in tumor at 20 mg/kg, po bid measured after 18 days by immunohistochemical analysis; assay type: functional, organism-based; details: time 18.0 day
EMT6 [22] = test: Antitumor activity against mouse EMT6 cells implanted in BALB/c mouse syngenic model assessed as downregulation of p-retinoblastoma level in tumor at 20 to 40 mg/kg, po qd measured after 18 days by immunohistochemical analysis; assay type: functional, organism-based; details: dose 20-40 mg/kg, time 18.0 day

Chain of CDK6/cyclin D3 (P30281 whole entry, the tested form may be a part): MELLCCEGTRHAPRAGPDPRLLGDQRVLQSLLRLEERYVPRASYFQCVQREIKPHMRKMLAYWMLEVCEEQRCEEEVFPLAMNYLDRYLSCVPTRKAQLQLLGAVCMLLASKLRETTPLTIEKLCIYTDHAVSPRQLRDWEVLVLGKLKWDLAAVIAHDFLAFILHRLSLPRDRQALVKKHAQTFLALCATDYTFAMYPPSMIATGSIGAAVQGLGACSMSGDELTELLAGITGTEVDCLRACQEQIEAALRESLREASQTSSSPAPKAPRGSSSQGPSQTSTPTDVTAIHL
Chain of CDK6/cyclin D3 (Q00534 whole entry, the tested form may be a part): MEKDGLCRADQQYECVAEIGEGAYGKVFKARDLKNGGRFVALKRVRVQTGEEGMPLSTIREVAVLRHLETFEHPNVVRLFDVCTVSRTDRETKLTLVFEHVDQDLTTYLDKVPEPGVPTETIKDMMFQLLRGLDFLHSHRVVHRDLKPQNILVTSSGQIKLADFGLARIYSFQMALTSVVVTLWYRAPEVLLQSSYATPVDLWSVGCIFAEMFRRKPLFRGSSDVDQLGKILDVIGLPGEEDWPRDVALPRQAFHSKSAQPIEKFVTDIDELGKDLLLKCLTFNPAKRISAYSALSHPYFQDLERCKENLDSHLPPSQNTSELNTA
Chain of Tyrosine-protein phosphatase non-receptor type 6 (P29350 whole entry, the tested form may be a part): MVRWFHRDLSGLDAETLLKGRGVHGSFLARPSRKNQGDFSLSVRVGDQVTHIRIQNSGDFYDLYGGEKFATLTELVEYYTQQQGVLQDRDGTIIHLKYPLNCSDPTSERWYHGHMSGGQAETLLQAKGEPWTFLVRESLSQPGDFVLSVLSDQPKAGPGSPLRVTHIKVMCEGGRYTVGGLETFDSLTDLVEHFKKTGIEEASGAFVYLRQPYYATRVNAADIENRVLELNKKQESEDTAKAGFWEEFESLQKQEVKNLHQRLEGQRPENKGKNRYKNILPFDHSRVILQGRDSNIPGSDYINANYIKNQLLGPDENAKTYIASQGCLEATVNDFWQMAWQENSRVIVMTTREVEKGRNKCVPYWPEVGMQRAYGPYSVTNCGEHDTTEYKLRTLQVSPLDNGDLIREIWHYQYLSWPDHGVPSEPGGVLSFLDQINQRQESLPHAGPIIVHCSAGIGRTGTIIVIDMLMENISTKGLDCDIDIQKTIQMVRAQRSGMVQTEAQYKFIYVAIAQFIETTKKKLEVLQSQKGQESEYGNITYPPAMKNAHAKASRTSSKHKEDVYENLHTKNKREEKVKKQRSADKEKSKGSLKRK

With `Cc1nc2c(F)cc(-c3nc(Nc4nccc(Sc5cnc(N6CCC7(CC6)CO[C@@H](C)[C@H]7N)cn5)c4Cl)ncc3F)cc2n1C(C)C` the IC50 [1] was 4.3 nM, the IC50 [2] was > 20000 nM and the IC50 [3] was > 20000 nM. It also gave an IC50 [4] of 210 nM, an IC50 (CDK6/cyclin D3) of 634 nM and an IC50 [5] of 26.4 nM. For the same compound, the Activity (MDA-MB-231 [6]) was 7.25%, the viability at 3 µM (MDA-MB-231 [7]) was 82% and the Activity (MDA-MB-231 [8]) was 1.16%. The Activity (MDA-MB-231 [9]) was 5.24%, the Activity (MDA-MB-231 [10]) was 7.29% and the inhibition [11] was “Dde”. It also gave an AUC at 24 h [12] of 1200 ng·h/mL, a half-life [13] of 2.11 h and a half-life [14] of 2.94 h. It also gave a Cmax [15] of 383 ng/mL, a Cmax [16] of 634 ng/mL and a bioavailability [17] of 45.8%. For the same compound, the inhibition in vivo at 20 mg/kg (EMT6 [18]) was 89%, the Activity (EMT6 [19]) was “Active” and the Activity (EMT6 [20]) was “Active”. For the same compound, the Activity (EMT6 [21]) was “Active” and the Activity (EMT6 [22]) was “Active”.
